{"source": "paper PMC4112042", "about": "“Phase 1 dose-escalation study of the PARP inhibitor CEP-9722 as monotherapy or in combination with temozolomide in patients with solid tumors” (Cancer Chemotherapy and Pharmacology, 2014)", "key": {"[1]": {"test_system": "PARP-2", "conditions": "PARP-2 enzyme; cited from earlier work"}, "[2]": {"experiment": "Plasma pharmacokinetics of CEP-8983 after oral CEP-9722", "format": "in vivo, human", "design": "AUC0–∞, mean ± SD / AUC0–t, mean ± SD / AUCτ, mean ± SD: concentration or dose not given beside the values", "method": "Pharmacokinetic serum samples were collected on day 1 of cycle 1 pre-dose and 0.5, 1, 2, 3, 4, 6, 8, 10, and 24 h post-dose; and on day 5 of cycle 1 and cycle 2 pre-dose, and 0.5, 1, 2, 3, 4, 6, 8, 10, 24, and 48 h post-dose. Urine samples were obtained on day 1 of cycle 1 during 4 intervals in the 24 h following study drug administration. Pharmacokinetic parameters (area under the plasma drug concentration–time curve from time 0 to infinity [AUC0–∞], AUC from time 0 to the time of the last measurable drug concentration [AUC0–t], AUC for 1 dosing interval [AUCτ] following multiple doses, maximum observed plasma concentration [C max], and time to maximum observed plasma concentration [T max]) were summarized at each visit (day 1 of cycle 1 and day 5 of cycles 1 and 2) using descriptive statistics."}, "[3]": {"test_system": "PARP-1", "conditions": "PARP-1 enzyme; cited from earlier work"}, "[4]": {"test_system": "human bone marrow cells", "design": "method as in PMID 17699724", "conditions": "CFU-GM colony-forming assay; cited from earlier work"}, "[5]": {"conditions": "in vivo; cited from earlier work"}, "[6]": {"conditions": "nonacidic environments; cited from earlier work"}, "[7]": {"test_system": "chemoresistant tumor cells", "design": "method as in PMID 17699724", "conditions": "in vitro and in xenograft models; cited from earlier work"}, "[8]": {"conditions": "day 5 of cycle 1, nonsmoker without medication affecting gastric pH, n = 13"}, "[9]": {"conditions": "day 5 of cycle 1, smoker and/or with medication affecting gastric pH, n = 11"}}, "data": [{"smiles": "COc1cccc2[nH]c3c4c(c5c(c3c12)C(=O)NC5=O)CCC4", "note": "[CEP-8983]", "values": [{"measurement": "IC50", "setting": "[1]", "result": 6, "unit": "nM"}, {"measurement": "mean AUC0–t", "setting": "[2]; day 1 of cycle 1, nonsmokers not receiving gastric pH-modifying medications", "result": "4,960.6 ng h/mL"}, {"measurement": "mean AUC0–t", "setting": "[2]; day 1 of cycle 1, smokers and/or patients receiving gastric pH-modifying medications", "result": "2,747.3 ng h/mL"}, {"measurement": "AUC0–t, mean ± SD", "setting": "[2]; [8]", "result": "3,138.0 ± 2,160.74 ng h/mL"}, {"measurement": "AUC0–∞, mean ± SD", "setting": "[2]; [8]", "result": "4,111.0 ± 4,126.79 ng h/mL"}, {"measurement": "AUCτ, mean ± SD", "setting": "[2]; [8]", "result": "3,851.1 ± 3,578.78 ng h/mL"}, {"measurement": "C max, mean ± SD", "setting": "[2]; [8]", "result": "607.5 ± 319.87", "unit": "ng/mL"}, {"measurement": "CL/F, mean ± SD", "setting": "[2]; [8]", "result": "20.4 ± 25.80", "unit": "L/h"}, {"measurement": "Percentage extrapolation, mean ± SD", "setting": "[2]; [8]", "result": "3.7 ± 3.82", "unit": "%"}, {"measurement": "V/F, mean ± SD", "setting": "[2]; [8]", "result": "58.1 ± 60.23", "unit": "L"}, {"measurement": "t max, mean ± SD", "setting": "[2]; [8]", "result": "36 ± 39.6", "unit": "min"}, {"measurement": "λ z, mean ± SD", "setting": "[2]; [8]", "result": "0.1 ± 0.13", "unit": "h⁻¹"}, {"measurement": "AUC0–t, mean ± SD", "setting": "[2]; [9]", "result": "1,339.3 ± 2,127.07 ng h/mL"}, {"measurement": "AUC0–∞, mean ± SD", "setting": "[2]; [9]", "result": "2,838.9 ± 5,740.57 ng h/mL"}, {"measurement": "AUCτ, mean ± SD", "setting": "[2]; [9]", "result": "2,304.7 ± 4,161.29 ng h/mL"}, {"measurement": "C max, mean ± SD", "setting": "[2]; [9]", "result": "352.5 ± 380.57", "unit": "ng/mL"}, {"measurement": "CL/F, mean ± SD", "setting": "[2]; [9]", "result": "67.1 ± 62.14", "unit": "L/h"}, {"measurement": "Percentage extrapolation, mean ± SD", "setting": "[2]; [9]", "result": "5.5 ± 8.29", "unit": "%"}, {"measurement": "V/F, mean ± SD", "setting": "[2]; [9]", "result": "102.3 ± 100.76", "unit": "L"}, {"measurement": "t 1/2, mean ± SD", "setting": "[2]; [9]", "result": "42 ± 46.2", "unit": "min"}, {"measurement": "t max, mean ± SD", "setting": "[2]; [9]", "result": "36 ± 39.6", "unit": "min"}, {"measurement": "λ z, mean ± SD", "setting": "[2]; [9]", "result": "0.2 ± 0.21", "unit": "h⁻¹"}, {"measurement": "mean AUC0–t", "setting": "[2]; day 5 of cycle 2, nonsmokers not receiving gastric pH-modifying medications", "result": "2,574.4 ng h/mL"}, {"measurement": "mean AUC0–t", "setting": "[2]; day 5 of cycle 2, smokers and/or patients receiving gastric pH-modifying medications", "result": "1,457.9 ng h/mL"}, {"measurement": "IC50", "setting": "[3]", "result": 20, "unit": "nM"}, {"measurement": "myelotoxicity of temozolomide", "setting": "[4]", "result": "only modest increases"}, {"measurement": "oral bioavailability", "setting": "[5]", "result": "low oral bioavailability"}, {"measurement": "solubility", "setting": "[6]", "result": "poorly soluble"}, {"measurement": "sensitivity of chemoresistant tumor cells to temozolomide", "setting": "[7]", "result": "increased the sensitivity"}]}]}
